According to US20260022142A1, “MACROCYCLIC IMMUNOMODULATORS” (Bristol-Myers Squibb Company, priority 2022, published 2026):
Numbered stars: 1 amine (or outer) side, 2 acyl side, 3 side chain; on linkers, the order of the positions; unused ones are H or OH. Bridge positions count the residues as written; N and C are the ends. Square brackets hold non-standard residues; d marks the D form. Peptide text beside a SMILES is read from it. * marks the point of attachment. ξ: configuration not given here. Phe(3-CF3) = N[C@@H](Cc1cccc(C(F)(F)F)c1)C(=O)O; Phe(4-CONH2) = NC(=O)c1ccc(C[C@H](N)C(=O)O)cc1; Phe(4-COOH) = N[C@@H](Cc1ccc(C(=O)O)cc1)C(=O)O; Bip = N[C@@H](Cc1ccc(-c2ccccc2)cc1)C(=O)O; NH(CH2)14COOH = O=C(O)CCCCCCCCCCCCCCN*; Phe(3-Me) = Cc1cccc(C[C@H](N)C(=O)O)c1; Val(3-OH) = CC(C)(O)[C@H](N)C(=O)O; X6 = O=C(Cc1ccc(CN[*:1])cc1)[*:2]; hArg = N=C(N)NCCCC[C@H](N)C(=O)O; 4Pal = N[C@@H](Cc1ccncc1)C(=O)O; Cha = N[C@@H](CC1CCCCC1)C(=O)O; Cit = NC(=O)NCCC[C@H](N)C(=O)O; Thr(3ξ) = CC(O)[C@H](N)C(=O)O; Carboxymethyl = O=C(O)C*; Orn = NCCC[C@H](N)C(=O)O; Aun = NCCCCCCCCCCC(=O)O; Dab = NCC[C@H](N)C(=O)O; Nva = CCC[C@H](N)C(=O)O; Dap = NC[C@H](N)C(=O)O; AEEA = NCCOCCOCC(=O)O

target: T1, PD-1/PD-L1 interaction (PE-labeled human PD-L1-Ig binding to Jurkat cell line over-expressing human PD-1) (Homo sapiens, UniProt Q15116); assay: Jurkat-PD-1 Cell Binding High-Content Screening Assay (CBA); format: cell-based; conditions: Jurkat cell line over-expressing human PD-1; PE-labeled PD-L1-Ig 20 nM final; read-out: Jurkat hPD1-PDL1 IC50
T1 construct: expressed in transfected cells; host or cells: Jurkat
Summary of the method: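 Human PD-L1-Ig carrying a covalent PE label on its Ig tag serves as the probe, applied at 20 nM final to compound-treated (2 h, 37° C) Jurkat-hPD-1 cells in medium with 10% fetal calf serum. After one hour, fixation and nuclear staining precede high-content image analysis.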

T1 sequence (Q15116 25-288): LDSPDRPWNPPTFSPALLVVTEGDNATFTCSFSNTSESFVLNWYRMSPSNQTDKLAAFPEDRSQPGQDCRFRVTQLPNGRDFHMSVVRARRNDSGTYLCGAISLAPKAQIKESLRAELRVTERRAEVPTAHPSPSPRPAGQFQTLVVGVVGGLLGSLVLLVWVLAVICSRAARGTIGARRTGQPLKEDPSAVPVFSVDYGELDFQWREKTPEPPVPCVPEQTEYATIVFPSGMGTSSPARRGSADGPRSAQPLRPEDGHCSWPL

SMILES | IC50
CCC[C@@H]1NC(=O)CSC[C@@H](C(=O)N[C@@H](CCN)C(=O)NCCCCCCCCCCC(=O)O)NC(=O)[C@H](CO)NC(=O)[C@H](C(C)(C)O)NC(=O)[C@H](CC2CCCCC2)NC(=O)[C@H](CCN)NC(=O)[C@@H](CC(C)C)NC(=O)[C@H](CCCN)NC(=O)[C@H](Cc2ccc(OCC(=O)O)cc2)NC(=O)[C@H](Cc2ccc(-c3ccccc3)cc2)NC(=O)[C@H](Cc2ccc(OCC(=O)O)cc2)NC(=O)[C@H](Cc2cccc(C)c2)NC(=O)[C@H](CC(=O)O)NC(=O)[C@H](Cc2ccc(OCC(=O)O)cc2)NC1=O [Compound 2204] ({CH2CO}-[Nva]Y(Carboxymethyl)D[Phe(3-Me)]Y(Carboxymethyl)[Bip]Y(Carboxymethyl)[Orn][dL][Dab][Cha][Val(3-OH)]SC[Dab][Aun]-OH; thioether N-14) | 10.6 nM
CC[C@H](C)[C@@H]1NC(=O)[C@H](Cc2ccc(-c3ccccc3)cc2)NC(=O)[C@H](C(C)C)NC(=O)[C@H](Cc2c[nH]c3ccccc23)NC(=O)[C@H](CC(=O)O)NC(=O)[C@H](Cc2ccc(OCC(=O)O)cc2)NC(=O)[C@H](Cc2ccncc2)NC(=O)CSC[C@@H](C(=O)N[C@@H](CCCN)C(=O)NCCOCCOCC(=O)NCc2ccc(CC(=O)NCCCCCCCCCCC(=O)O)cc2)NC(=O)[C@H](CN)NC(=O)[C@H](C(C)C)NC(=O)[C@H](CC(C)C)NC(=O)[C@H](CCN)NC(=O)[C@@H](CC(C)C)NC(=O)[C@H](CCCN)NC1=O [Compound 2014] ({CH2CO}-[4Pal]Y(Carboxymethyl)DWV[Bip]I[Orn][dL][Dab]LV[Dap]C[Orn][AEEA][X6][Aun]-OH; thioether N-14) | 33 nM
CC(=O)NCCCC[C@@H]1NC(=O)[C@H](Cc2ccc(-c3ccccc3)cc2)NC(=O)[C@H](Cc2ccc(OCC(=O)O)cc2)NC(=O)[C@H](Cc2cccc(C)c2)NC(=O)[C@H](CC(=O)O)NC(=O)[C@H](Cc2ccc(OCC(=O)O)cc2)NC(=O)[C@H](CCN)NC(=O)CSC[C@@H](C(=O)N[C@@H](CCN)C(=O)N[C@@H](CO)C(=O)NCCCCCCCCCCC(=O)O)NC(=O)[C@H](CO)NC(=O)[C@H](C(C)(C)O)NC(=O)[C@H](CC2CCCCC2)NC(=O)[C@H](CCN)NC(=O)[C@@H](CC(C)C)NC(=O)[C@H](CCCN)NC1=O [Compound 3644] ({CH2CO}-[Dab]Y(Carboxymethyl)D[Phe(3-Me)]Y(Carboxymethyl)[Bip]K(Ac)[Orn][dL][Dab][Cha][Val(3-OH)]SC[Dab]S[Aun]-OH; thioether N-14) | 18.8 nM
Cc1cccc(C[C@@H]2NC(=O)[C@H](CC(=O)O)NC(=O)[C@H](Cc3ccc(OCC(=O)O)cc3)NC(=O)[C@H](CCN)NC(=O)CSC[C@@H](C(=O)N[C@@H](CCN)C(=O)NCCOCCOCC(=O)NCCOCCOCC(=O)NCCOCCOCC(=O)NCCCCCCCCCCCCCCC(=O)O)NC(=O)[C@H](Cc3c[nH]cn3)NC(=O)[C@H](C(C)(C)O)NC(=O)[C@H](CC3CCCCC3)NC(=O)[C@H](CCN)NC(=O)[C@@H](CC(C)C)NC(=O)[C@H](CCCN)NC(=O)[C@H](Cc3ccc(C(=O)O)cc3)NC(=O)[C@H](Cc3ccc(-c4ccccc4)cc3)NC(=O)[C@H](Cc3ccc(C(N)=O)cc3)NC2=O)c1 [Compound 3761] ({CH2CO}-[Dab]Y(Carboxymethyl)D[Phe(3-Me)][Phe(4-CONH2)][Bip][Phe(4-COOH)][Orn][dL][Dab][Cha][Val(3-OH)]HC[Dab][AEEA][AEEA][AEEA]-{NH(CH2)14COOH}; thioether N-14) | 36.8 nM
CC(C)C[C@H]1NC(=O)[C@H](CCCN)NC(=O)[C@H](Cc2ccc(O)cc2)NC(=O)[C@H](Cc2ccc(-c3ccccc3)cc2)NC(=O)[C@H](Cc2ccc(O)cc2)NC(=O)[C@H](Cc2c[nH]c3ccccc23)NC(=O)[C@H](CC(=O)O)NC(=O)[C@H](Cc2ccc(OCC(=O)O)cc2)NC(=O)[C@H](Cc2ccc(OCC(=O)O)cc2)NC(=O)CSC[C@@H](C(=O)N[C@@H](CCN)C(=O)NCCOCCOCC(=O)NCCCCCCCCCCC(=O)O)NC(=O)[C@H](CCCNC(=N)N)NC(=O)[C@H](Cc2ccc(O)cc2)NC(=O)[C@H](CC2CCCCC2)NC(=O)[C@H](CCN)NC1=O [Compound 2502] ({CH2CO}-Y(Carboxymethyl)Y(Carboxymethyl)DWY[Bip]Y[Orn][dL][Dab][Cha]YRC[Dab][AEEA][Aun]-OH; thioether N-14) | 21.2 nM
CC(C)C[C@H]1NC(=O)[C@H](CCCN)NC(=O)[C@H](Cc2ccc(C(=O)O)cc2)NC(=O)[C@H](Cc2ccc(-c3ccccc3)cc2)NC(=O)[C@H](Cc2ccc(C(=O)O)cc2)NC(=O)[C@H](Cc2cccc(C(F)(F)F)c2)NC(=O)[C@H](CC(=O)O)NC(=O)[C@H](Cc2ccc(OCC(=O)O)cc2)NC(=O)[C@H](C)NC(=O)CSC[C@@H](C(=O)N[C@@H](CCN)C(=O)NCCCCCCCCCCCCCCC(=O)O)NC(=O)[C@H](Cc2c[nH]cn2)NC(=O)[C@H](C(C)(C)O)NC(=O)[C@H](CC2CCCCC2)NC(=O)[C@H](CCN)NC1=O [Compound 2922] ({CH2CO}-AY(Carboxymethyl)D[Phe(3-CF3)][Phe(4-COOH)][Bip][Phe(4-COOH)][Orn][dL][Dab][Cha][Val(3-OH)]HC[Dab]-{NH(CH2)14COOH}; thioether N-14) | 423 nM
Cc1cccc(C[C@@H]2NC(=O)[C@H](CC(=O)O)NC(=O)[C@H](Cc3ccc(OCC(=O)O)cc3)NC(=O)[C@H](CN)NC(=O)CSC[C@@H](C(=O)N[C@@H](CCN)C(=O)NCCCCCCCCCCC(=O)O)NC(=O)[C@H](CCCN)NC(=O)[C@H](Cc3ccc(O)cc3)NC(=O)[C@H](CC3CCCCC3)NC(=O)[C@H](CCN)NC(=O)[C@@H](CC(C)C)NC(=O)[C@H](CCCN)NC(=O)[C@H](Cc3ccc(O)cc3)NC(=O)[C@H](Cc3ccc(-c4ccccc4)cc3)NC(=O)[C@H](Cc3ccc(O)cc3)NC2=O)c1 [Compound 2511] ({CH2CO}-[Dap]Y(Carboxymethyl)D[Phe(3-Me)]Y[Bip]Y[Orn][dL][Dab][Cha]Y[Orn]C[Dab][Aun]-OH; thioether N-14) | 50.1 nM

Results, then the compound that gave them:

IC50 | SMILES
11.3 nM | Cc1cccc(C[C@@H]2NC(=O)[C@H](CC(=O)O)NC(=O)[C@H](Cc3ccc(OCC(=O)O)cc3)NC(=O)[C@H](CN)NC(=O)CSC[C@@H](C(=O)N[C@@H](CCN)C(=O)NCCCCCCCCCCC(=O)O)NC(=O)[C@H](CCCN)NC(=O)[C@H](C(C)C)NC(=O)[C@H](CC3CCCCC3)NC(=O)[C@H](CCN)NC(=O)[C@@H](CC(C)C)NC(=O)[C@H](CCCN)NC(=O)[C@H](C(C)C)NC(=O)[C@H](Cc3ccc(-c4ccccc4)cc3)NC(=O)[C@H](C(C)C)NC2=O)c1 [Compound 2559] ({CH2CO}-[Dap]Y(Carboxymethyl)D[Phe(3-Me)]V[Bip]V[Orn][dL][Dab][Cha]V[Orn]C[Dab][Aun]-OH; thioether N-14)
32.2 nM | Cc1cccc(C[C@@H]2NC(=O)[C@H](CC(=O)O)NC(=O)[C@H](Cc3ccc(OCC(=O)O)cc3)NC(=O)[C@H]([C@@H](C)O)NC(=O)CSC[C@@H](C(=O)N[C@@H](CCCCN)C(=O)NCCCCCCCCCCC(=O)O)NC(=O)[C@H]([C@@H](C)O)NC(=O)[C@H](C(C)C)NC(=O)[C@H](CC3CCCCC3)NC(=O)[C@H](CCN)NC(=O)[C@@H](CC(C)C)NC(=O)[C@H](CCCN)NC(=O)[C@H](Cc3ccc(OCC(=O)O)cc3)NC(=O)[C@H](Cc3ccc(-c4ccccc4)cc3)NC(=O)[C@H](Cc3ccc(C(=O)O)cc3)NC2=O)c1 [Compound 1303] ({CH2CO}-TY(Carboxymethyl)D[Phe(3-Me)][Phe(4-COOH)][Bip]Y(Carboxymethyl)[Orn][dL][Dab][Cha]VTCK[Aun]-OH; thioether N-14)
7.7 nM | Cc1cccc(C[C@@H]2NC(=O)[C@H](CC(=O)O)NC(=O)[C@H](Cc3ccc(OCC(=O)O)cc3)NC(=O)[C@H](CCCNC(=N)N)NC(=O)CSC[C@@H](C(=O)N[C@@H](CCN)C(=O)NCCCCCCCCCCC(=O)O)NC(=O)[C@H](CCCNC(N)=O)NC(=O)[C@H](C(C)C)NC(=O)[C@H](CC3CCCCC3)NC(=O)[C@H](CCN)NC(=O)[C@@H](CC(C)C)NC(=O)[C@H](CCCN)NC(=O)[C@H](Cc3ccc(O)cc3)NC(=O)[C@H](Cc3ccc(-c4ccccc4)cc3)NC(=O)[C@H](Cc3ccc(O)cc3)NC2=O)c1 [Compound 2724] ({CH2CO}-RY(Carboxymethyl)D[Phe(3-Me)]Y[Bip]Y[Orn][dL][Dab][Cha]V[Cit]C[Dab][Aun]-OH; thioether N-14)
16.3 nM | CC(C)C[C@H]1NC(=O)[C@H](CCCN)NC(=O)[C@H](C(C)C)NC(=O)[C@H](Cc2ccc(-c3ccccc3)cc2)NC(=O)[C@H](C(C)C)NC(=O)[C@H](Cc2c[nH]c3ccccc23)NC(=O)[C@H](CC(=O)O)NC(=O)[C@H](Cc2ccc(OCC(=O)O)cc2)NC(=O)[C@H](CCCCNC(=N)N)NC(=O)CSC[C@@H](C(=O)N[C@@H](CCN)C(=O)NCCCCCCCCCCC(=O)O)NC(=O)[C@H](C(C)O)NC(=O)[C@H](C(C)C)NC(=O)[C@H](CC2CCCCC2)NC(=O)[C@H](CCN)NC1=O (stereo partly drawn) [Compound 3267] ({CH2CO}-[hArg]Y(Carboxymethyl)DWV[Bip]V[Orn][dL][Dab][Cha]V[Thr(3ξ)]C[Dab][Aun]-OH; thioether N-14)
21 nM | Cc1cccc(C[C@@H]2NC(=O)[C@H](CC(=O)O)NC(=O)[C@H](Cc3ccc(OCC(=O)O)cc3)NC(=O)[C@H](CN)NC(=O)CSC[C@@H](C(=O)N[C@@H](CO)C(=O)N[C@@H](CO)C(=O)NCCCCCCCCCCC(=O)O)NC(=O)[C@H]([C@@H](C)O)NC(=O)[C@H](C(C)C)NC(=O)[C@H](CC3CCCCC3)NC(=O)[C@H](CCN)NC(=O)[C@@H](CC(C)C)NC(=O)[C@H](CCCN)NC(=O)[C@H](CCCNC(N)=O)NC(=O)[C@H](Cc3ccc(-c4ccccc4)cc3)NC(=O)[C@H](C(C)C)NC2=O)c1 [Compound 2852] ({CH2CO}-[Dap]Y(Carboxymethyl)D[Phe(3-Me)]V[Bip][Cit][Orn][dL][Dab][Cha]VTCSS[Aun]-OH; thioether N-14)
